Values after ≈ are worked out from the molar mass of the structure shown. Active and inactive are the calls of the source. No cut-off for these calls is given here.
Key:
[1] = tested on: Mus musculus; assay: Anti-MASH activity in HFD-fed CCl4-treated male C57BL/6 mouse assessed as reduction in inflammation in liver at 150 mg/kg, po qd treated for 4 weeks by H and E/Oil red O staining based analysis; type: functional, organism-based
[2] = Tmax in overnight-fasted male Sprague-Dawley rat at 150 mg/kg, po measured up to 12 hrs by HPLC analysis; type: ADME, organism-based; conditions: in vivo
[3] = tested on: Rattus norvegicus; assay: Hepatoprotective activity in male Sprague-Dawley rat model of CCl4-induced ALI assessed as restoration of serum ALT level at 100 mg/kg, IG qd pretreated with compound for 7 days followed by CCl4 administration after 2 hrs post-compound treatment measured after 16 hrs post-CCl4 injection; type: functional, organism-based; conditions: time 186.0 hrs
[4] = tested on: Rattus norvegicus; assay: Hepatoprotective activity in male Sprague-Dawley rat model of CCl4-induced ALI assessed as restoration of SOD level at 100 mg/kg, IG qd pretreated with compound for 7 days followed by CCl4 administration after 2 hrs post-compound treatment measured after 16 hrs post-CCl4 injection; type: functional, organism-based; conditions: time 186.0 hrs
[5] = Toxicity in HFD-fed CCl4-treated male C57BL/6 mouse assessed as body weight loss at 150 mg/kg, po qd treated for 4 weeks; type: organism-based; conditions: in vivo, 672 h
[6] = AUC (0 to infinity) in overnight-fasted male Sprague-Dawley rat at 150 mg/kg, po measured up to 12 hrs by HPLC analysis; type: ADME, organism-based; conditions: in vivo
[7] = tested on: Mus musculus; assay: Anti-MASH activity in HFD-fed CCl4-treated male C57BL/6 mouse assessed as reduction in serum cholesterol level at 150 mg/kg, po qd treated for 4 weeks; type: functional, organism-based
[8] = tested on: L02; assay: Anti-MASH activity in palmitate/oleate-stimulated human LO2 cells assessed as reduction in FASN mRNA level at 10 to 40 uM incubated for 24 hrs by q-PCR analysis; type: functional, cell-based; conditions: dose 10-40 µM
[9] = tested on: Mus musculus; assay: Anti-MASH activity in HFD-fed CCl4-treated male C57BL/6 mouse assessed as reduction in liver IL-6 level at 150 mg/kg, po qd treated for 4 weeks by ELISA; type: functional, organism-based
[10] = tested on: Rattus norvegicus; assay: (§1) Hepatoprotective activity in male Sprague-Dawley rat model of CCl4-induced ALI assessed as reduction in hepatopancreas somatic indices at 100 mg/kg, IG qd pretreated with compound for 7 days followed by CCl4 administration after 2 hrs post-compound treatment measured after 16 hrs post-CCl4 injection; type: functional, organism-based; conditions: time 186.0 hrs
[11] = tested on: Mus musculus; assay: Anti-MASH activity in HFD-fed CCl4-treated male C57BL/6 mouse assessed as reversal of hepatopancreas somatic indices at 150 mg/kg, po qd treated for 4 weeks; type: functional, organism-based
[12] = tested on: L02; assay: Anti-MASH activity in palmitate/oleate-stimulated human LO2 cells assessed as reduction in triglyceride level incubated for 24 hrs; type: functional, cell-based; conditions: dose 10-40 µM
[13] = tested on: Mus musculus; assay: Anti-MASH activity in HFD-fed CCl4-treated male C57BL/6 mouse assessed as reduction in hepatic cholesterol level at 150 mg/kg, po qd treated for 4 weeks by ELISA; type: functional, organism-based
[14] = tested on: Mus musculus; assay: Anti-MASH activity in HFD-fed CCl4-treated male C57BL/6 mouse assessed as reduction in liver TNF-alpha level at 150 mg/kg, po qd treated for 4 weeks by ELISA; type: functional, organism-based
[15] = tested on: Hepatocyte; assay: Anti-inflammatory activity in CCl4-stimulated mouse primary hepatocytes assessed as reduction in IL-6 mRNA level at 1 uM; type: functional, cell-based
[16] = Solubility in […] incubated for 10 mins; type: physicochemical
[17] = tested on: Rattus norvegicus; assay: as §1, with “vacuoles” for “hepatopancreas somatic indices”, “injection by H and E staining based analysis” for “injection”; type: functional, organism-based; conditions: time 186.0 hrs
[18] = tested on: Mus musculus; assay: Anti-MASH activity in HFD-fed CCl4-treated male C57BL/6 mouse assessed as reduction in fat accumulation in liver at 150 mg/kg, po qd treated for 4 weeks by Oil red O staining based analysis; type: functional, organism-based
[19] = tested on: Mus musculus; assay: Anti-MASH activity in HFD-fed CCl4-treated male C57BL/6 mouse assessed as reduction in steatosis in liver at 150 mg/kg, po qd treated for 4 weeks by H and E/Oil red O staining based analysis; type: functional, organism-based
[20] = tested on: LX-2; assay: Anti-MASH activity in TGF-beta-activated-human LX2 cells assessed as reduction in fibronectin level incubated for 48 hrs by Western blot analysis; type: functional, cell-based; conditions: dose 10-40 µM
[21] = Solubility in methanol incubated for 10 mins; type: physicochemical
[22] = tested on: Mus musculus; assay: Anti-MASH activity in HFD-fed CCl4-treated male C57BL/6 mouse assessed as reduction in serum triglyceride level at 150 mg/kg, po qd treated for 4 weeks; type: functional, organism-based
[23] = tested on: L02; assay: Anti-MASH activity in palmitate/oleate-stimulated human LO2 cells assessed as reduction in SCD mRNA level at 10 to 40 uM incubated for 24 hrs by q-PCR analysis; type: functional, cell-based; conditions: dose 10-40 µM
[24] = tested on: Mus musculus; assay: Anti-MASH activity in HFD-fed CCl4-treated male C57BL/6 mouse assessed as reversal of light color of liver at 150 mg/kg, po qd treated for 4 weeks; type: functional, organism-based
[25] = tested on: L02; assay: Anti-MASH activity in CCl4-stimulated human LO2 cells assessed as increase in cell viability up to 10 uM incubated for 24 hrs by MTT assay; type: functional, cell-based
[26] = tested on: Mus musculus; assay: Anti-MASH activity in HFD-fed CCl4-treated male C57BL/6 mouse assessed as reduction in hepatic triglyceride level at 150 mg/kg, po qd treated for 4 weeks by ELISA; type: functional, organism-based
[27] = Antioxidant activity assessed as clearing rate incubated for 5 mins in presence of pyrogallol by superoxide anion scavenging assay; type: functional
[28] = tested on: Rattus norvegicus; assay: as §1, with “acute fat deposition” for “hepatopancreas somatic indices”, “injection by oil red O staining based analysis” for “injection”; type: functional, organism-based; conditions: time 186.0 hrs
[29] = tested on: Rattus norvegicus; assay: Hepatoprotective activity in male Sprague-Dawley rat model of CCl4-induced ALI assessed as restoration of serum LDH level at 100 mg/kg, IG qd pretreated with compound for 7 days followed by CCl4 administration after 2 hrs post-compound treatment measured after 16 hrs post-CCl4 injection; type: functional, organism-based; conditions: time 186.0 hrs
[30] = tested on: Hepatocyte; assay: Anti-MASH activity in palmitate/oleate-stimulated mouse primary hepatocytes assessed as reduction in ACACA mRNA level by q-PCR analysis; type: functional, cell-based
[31] = Solubility in water incubated for 10 mins; type: physicochemical
[32] = Apparent clearance during terminal phase in overnight-fasted male Sprague-Dawley rat at 150 mg/kg, po measured up to 12 hrs by HPLC analysis; type: ADME, organism-based; conditions: in vivo, read-out: CLz/F (converted)
[33] = tested on: Rattus norvegicus; assay: Hepatoprotective activity in male Sprague-Dawley rat model of CCl4-induced ALI assessed as restoration of serum AST level at 100 mg/kg, IG qd pretreated with compound for 7 days followed by CCl4 administration after 2 hrs post-compound treatment measured after 16 hrs post-CCl4 injection; type: functional, organism-based; conditions: time 186.0 hrs
[34] = Antioxidant activity assessed as inhibition of superoxide anion scavenging activity incubated for 5 mins in presence of pyrogallol; type: functional
[35] = tested on: Mus musculus; assay: Anti-MASH activity in HFD-fed CCl4-treated male C57BL/6 mouse assessed as reduction in fat dyslipidemia at 150 mg/kg, po qd treated for 4 weeks; type: functional, organism-based

In the case of `COc1cc([C@@H]2Oc3cc([C@H]4Oc5cc(O)cc(O)c5C(=O)[C@@H]4O)ccc3OC2CS)ccc1O` (stereo not given in full), the Activity [1] is reported as “Active; Activity Was Better Than Silybin”, the Tmax [2] is reported as 1.99 h and the Activity [3] is reported as “Active”. The Activity [4] was “Active; Exhibited Better Efficacy Than Silybin”, the Activity [5] was “Non-toxic” and the AUC(0-inf) [6] was 11600 ng·h/mL. The Activity [7] was “Active”, the Activity [8] was “Active” and the Activity [9] was “Active”. The Activity [10] was “Active”, the Activity [11] was “Active” and the Activity [12] was “Dose-dependent-effect”. The Activity [13] was “Active; Activity Was More Significant Than Silybin”, the Activity [14] was “Active” and the Activity [15] was “Active”. The solubility [16] was over 1000 mg/mL, the Activity [17] was “Active” and the Activity [18] was “Active”. The Activity [19] was “Active; Activity Was Better Than Silybin”, the Activity [20] was “Dose-dependent-effect” and the solubility [21] was 913 mg/mL (≈ 1830 mM). For the same molecule, the Activity [22] was “Active”, the Activity [23] was “Active” and the Activity [24] was “Active; Activity Better Than Silybin”. For the same molecule, the Activity [25] was “Active”, the Activity [26] was “Active; Activity Was More Significant Than Silybin” and the Activity [27] was 82.9%. The Activity [28] was “Active”, the Activity [29] was “Active” and the Activity [30] was “Active”. The solubility at 10 min [31] was 0.25 mg/mL (≈ 0.501 mM), the CL/F [32] was 51.3 mL/min and the Activity [33] was “Active”. For the same molecule, the IC50 [34] was 28.1 µM and the Activity [35] was “Active”.
